Test results published in US8772500B2, “TRPV3 modulators” (AbbVie Inc., priority 2011, dated 2014).

Columns and labels:
human TRPV3 = target: T1, human TRPV3 (Homo sapiens, UniProt Q8NET8); test: In vitro antagonism of recombinant human TRPV3 activation (FLIPR Tetra calcium assay, 2-APB as agonist); assay type: cell-based; settings: HEK293 cells stably expressing human TRPV3; 2-APB 80 μM; range class; read-out: IC50 (reported range)
T1 construct: expressed in transfected cells
T1 sequence (Q8NET8 1-790): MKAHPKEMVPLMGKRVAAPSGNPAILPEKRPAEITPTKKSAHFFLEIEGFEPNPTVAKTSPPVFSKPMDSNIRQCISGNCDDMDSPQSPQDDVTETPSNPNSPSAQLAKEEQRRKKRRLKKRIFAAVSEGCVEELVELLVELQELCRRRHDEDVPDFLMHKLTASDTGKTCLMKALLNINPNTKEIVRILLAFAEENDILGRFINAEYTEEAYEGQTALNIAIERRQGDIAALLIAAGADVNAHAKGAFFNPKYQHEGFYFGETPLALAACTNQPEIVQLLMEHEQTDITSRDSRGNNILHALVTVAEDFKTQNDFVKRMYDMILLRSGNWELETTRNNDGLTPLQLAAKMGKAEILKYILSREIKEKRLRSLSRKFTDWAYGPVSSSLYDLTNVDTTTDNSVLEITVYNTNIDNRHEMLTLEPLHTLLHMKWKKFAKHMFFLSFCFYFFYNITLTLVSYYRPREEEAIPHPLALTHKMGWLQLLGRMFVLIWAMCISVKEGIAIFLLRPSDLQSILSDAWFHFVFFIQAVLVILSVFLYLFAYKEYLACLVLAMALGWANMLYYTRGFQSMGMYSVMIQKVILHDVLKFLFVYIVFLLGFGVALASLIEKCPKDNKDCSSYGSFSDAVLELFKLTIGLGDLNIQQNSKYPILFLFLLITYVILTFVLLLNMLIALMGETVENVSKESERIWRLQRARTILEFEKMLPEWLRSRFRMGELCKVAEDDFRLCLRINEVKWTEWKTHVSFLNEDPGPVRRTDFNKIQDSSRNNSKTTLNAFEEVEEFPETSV
Method in brief: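 HEK293 cells stably expressing human TRPV3, loaded with Calcium-4 dye for 90-120 min; compound added 3 min before 2-APB at 80 μM (its EC80). Fluorescence (max minus min) over 10 min expressed as % of maximal 2-APB response without antagonist; IC50 mostly averaged from n≧2 runs.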

[1] = In vitro rat microsomal stability assay; assay type: in vitro ADME, rat (Sprague-Dawley); settings: Sprague-Dawley, rat, 0.5 h, 0.5 μM, pH 7.4
Method in brief: (§1)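 Liver microsomes: Sprague-Dawley rat for rat assay, human for human assay; 37 °C; NADPH cofactor, also spiked into time-zero plates.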

[2] = In vitro human microsomal stability assay; assay type: in vitro ADME; settings: human, 0.5 h, 0.5 μM, pH 7.4
Method in brief: as §1

Row | SMILES | IC50 (human TRPV3) [nM] | RAT MICROSOMAL STABILITY (% REMAINING AFTER 30 MINUTES) [1] [%] | HUMAN MICROSOMAL STABILITY (% REMAINING AFTER 30 MINUTES) [2] [%]
1 | OC(c1ccccn1)C1(C2CCCC2)CCC1 (stereo not drawn) [Example 163, (1-cyclopentylcyclobutyl)(pyridin-2-yl)methanol] | 1100 to 5000 | <0.01 | 0.11
2 | OC(c1ccccn1)C1(c2ccccc2OC(F)(F)F)CCCO1 (stereo not drawn) [Example 97, (syn)-pyridin-2-yl{2-[2-(trifluoromethoxy)phenyl]tetrahydrofuran-2-yl}-methanol] | 50 to 500 | 0.16 | 6.4
3 | OC1CC(c2ccc(Cl)c(Cl)c2)(C(O)c2ccccn2)C1 [Example 247, cis-3-(3,4-dichlorophenyl)-3-[(R)-hydroxy(pyridin-2-yl)methyl]cyclobutanol] | 1100 to 5000 | >85 | 62
4 | OC(c1ccccn1)C1(c2ccc(F)cc2)CCC1 (stereo not drawn) [Example 3, [1-(4-fluorophenyl)cyclobutyl](pyridin-2-yl)methanol] | 501 to 1000 | 3.8 | 28
5 | Cc1ccccc1C1(C(O)c2ccccn2)CCC1 (stereo not drawn) [Example 7, [1-(2-methylphenyl)cyclobutyl](pyridin-2-yl)methanol] | 5100 to 20000 | 0.32 | 0.15
6 | O[C@H](c1ccccn1)C1(c2ccc(C(F)(F)F)c(F)c2)CCC1 [Example 29, (S)-{1-[3-fluoro-4-(trifluoromethyl)phenyl]cyclobutyl}(pyridin-2-yl)-methanol] | 1100 to 5000 | 45 | 5.3
7 | OC(c1ccccn1)C1(c2cccc(OC(F)(F)F)c2)CCC1 (stereo not drawn) [Example 11, pyridin-2-yl{1-[3-(trifluoromethoxy)phenyl]cyclobutyl}methanol] | 50 to 500 | 0.80 | 0.72
8 | OC(CC1(c2ccc(OC(F)(F)F)cc2)CCC1)c1ccccn1 (stereo not drawn) [Example 76, 1-(pyridin-2-yl)-2-{1-[4-(trifluoromethoxy)phenyl]cyclobutyl}ethanol] | 501 to 1000 | 0.47 | 39
9 | C[C@]1(O)C[C@@](c2ccc(OC(F)(F)F)cc2)([C@@H](O)c2ccccn2)C1 [Example 250, cis-3-[(R)-hydroxy(pyridin-2-yl)methyl]-1-methyl-3-[4-(trifluoromethoxy)-phenyl]cyclobutanol] | 5100 to 20000 | 70 | 70
10 | NC1CCCC1C(O)C1(c2ccc(C(F)(F)F)cc2)CCC1 (stereo not drawn) [Example 205, (2-aminocyclopentyl){1-[4-(trifluoromethyl)phenyl]cyclobutyl}methanol] | 1100 to 5000 | >85 | >85
11 | OC(c1ccccn1)C1(c2ccc(Cl)c(Cl)c2)CCCO1 (stereo not drawn) [Example 98] | 50 to 500 | 0.020 | 7.6
12 | O=C1CC(c2cc(C(F)(F)F)ccn2)([C@H](O)c2ccccn2)C1 [Example 277, 3-[(S)-hydroxy(pyridin-2-yl)methyl]-3-[4-(trifluoromethyl)pyridin-2-yl]-cyclobutanone] | 1100 to 5000 | >85 | >85
13 | OC(c1ccccn1)C1(c2cccc(Oc3ccccc3)c2)CCC1 (stereo not drawn) [Example 23, [1-(3-phenoxyphenyl)cyclobutyl](pyridin-2-yl)methanol] | 501 to 1000 | 0.69 | 0.12
14 | CC1(O)CC(c2ccc(OC(F)(F)F)cc2)(C(O)c2ccccn2)C1 (single isomer, unassigned) [Example 134] | 501 to 1000 | 72 | 78
